{"source": "patent US20230293560A1", "about": "“METHOD FOR MODULATING THE BLADDER MICROBIOME TO IMPROVE BLADDER HEALTH” (Kimberly-Clark Worldwide, Inc., priority 2020, published 2023)", "key": {"[1]": {"tested_on": "ratio of L. crispatus/S. anginosus", "assay": "Therapeutic effect protocol (competition assay)", "format": "cell-based, Lactobacillus crispatus; Streptococcus anginosus", "details": "Table 6; prebiotic 2%; Lc-3 vs Sa-2", "excerpt": "As used herein, the term “therapeutic effect” refers to the ability of the compositions and formulations of the present disclosure to stimulate the growth of L. crispatus relative S. anginosus measured according to the therapeutic effect protocol described below. The therapeutic effect can be expressed as a ratio of L. crispatus to S. anginosus and is desirably greater than about 100, more preferably greater than about 500 and more desirably greater than about 1,000.\n(§1) Further testing was conducted to put the prebiotic compounds in competition assay testing, as further described in the test methods section herein. In the competition assay testing, each competition involved testing a single prebiotic compound with the commensal bacteria species of L. crispatus, KC18-1173-1, Bladder (“Lc-3”—Table 2) against the pathogenic bacterial species of S. anginosus, KC18-1131-3B, Bladder (“Sa-2”—Table 2).\n(§2) • 1. An in house bacterial agar was created based on MRS agar (Kaplan and Hutkins, 2000) where the glucose is substituted for the prebiotic to be tested (either dextran MW ˜6,000, alpha-cyclodextrin, glucomannan, or pectin), bromocresol purple was included as a pH indicator. • 2. Bacteria were enumerated on each agar and color changes were recorded. Method for Competition Assay (Modified from “In Vitro Evaluation of Nutrients that Selectively Confer a Competitive Advantage to Lactobacilli” Vongsa et al, Beneficial Microbes 2016) • 1. Create 2% w/v stock of prebiotic or positive control (glucose/dextrose) as described above. • 2. From a freezer stock subculture the bacteria twice into De Man, Rogosa and Sharpe (MRS) broth (BD Difco, Becton Dickinson, Franklin Lakes, NJ), 37° C., stationary, anaerobic, overnight. • 3. From the last subculture, plate onto an MRS agar plate for L. crispatus KC18-1173-1 or blood agar for S. anginosus KC18-1131-3B, grow 37° C., stationary, anaerobic, overnight. • 4. Create a bacterial suspension by using a sterile tipped swab to transfer colonies of bacteria into a PBS suspension blank to a 2 MacFarland for both species. • 5. Enumerate the starting culture. • 6. Add 9.8 mL of prebiotic media into a 15 mL conical tube. • 7. Add 100 μL of the diluted bacteria to the media, incubate at 37° C., anaerobic, 48 hours. • 8. Harvest 100 μL from the tube containing the prebiotic and plate onto MRS agar and tryptic soy agar (TSA). • 9. Enumerate the bacteria on the MRS agar (both the L. crispatus and the S. anginosus). Small colonies are counted as S. anginosus and large colonies are counted as L. crispatus. • 10. Enumerate the bacteria on the TSA plate. […] Growth of the bacteria in the negative control (CHL media without prebiotic) was subtracted from the growth in the presence of the prebiotic or formulation.\nColonies of L. crispatus and S. anginosus were tested against in the competition method assay test method as described above. The therapeutic effect was calculated by comparing the colony forming units recovered after the competition assay of both L. crispatus and S. anginosus and calculating the ratio of L. crispatus/S. anginosus. A larger number indicates an increase in L. crispatus and/or a decrease in S. anginosus and a smaller number indicates a decrease in L. crispatus and/or an increase in S. anginosus."}, "[2]": {"tested_on": "L. crispatus, KC18-1173-1, Bladder (Lc-3)", "assay": "Competition assay, L. crispatus recovered", "format": "cell-based, Lactobacillus crispatus", "details": "Table 6, prebiotic 2%, one line per replicate; for Lc-3 MRS Δ: change vs start, background growth in CHL media subtracted, MRS agar; for Lc-3 MRS end: competition Sa-2 vs Lc-3, 48 hours, enumerated on MRS agar", "procedure": "as §1, §2"}, "[3]": {"tested_on": "S. anginosus, KC18-1131-3B, Bladder (Sa-2)", "format": "cell-based", "details": "Table 6, prebiotic 2%, one line per replicate; for Sa-2 MRS Δ / Sa-2 TSA Δ: change vs start, background growth in CHL media subtracted; for Sa-2 MRS Δ: MRS agar; for Sa-2 MRS end / Sa-2 TSA end: competition Sa-2 vs Lc-3, 48 hours; for Sa-2 MRS end: anaerobic, enumerated on MRS agar; for Sa-2 TSA end: enumerated on TSA", "procedure": "as §1, §2"}}, "note": "Where “and” joins values, the source holds several entries; their conditions need not be identical. Equal entries are not always repeated.", "data": [{"smiles": "O=C(CO)[C@@H](O)[C@H](O)[C@H](O)CO[C@H]1O[C@H](CO)[C@@H](O)[C@H](O)[C@H]1O", "note": "[Palatinose Hydrate, 6-O-α-D-Glucopyranosyl-D-fructose]", "values": [{"measurement": "Therapeutic Effect (ratio of L. crispatus/S. anginosus)", "setting": "[1]", "result": "1.74E+03 (2×) and 2.57E+03 (2×) and 3.29E+03 (2×) and 6.92E+03 (2×)"}, {"measurement": "Lc-3 MRS Δ", "setting": "[2]", "result": "2.93 Log CFU/mL and 2.26 Log CFU/mL and 3.24 Log CFU/mL and 1.90 Log CFU/mL"}, {"measurement": "Lc-3 MRS end", "setting": "[2]", "result": "7.97 Log CFU/mL and 8.00 Log CFU/mL and 8.37 Log CFU/mL and 7.98 Log CFU/mL"}, {"measurement": "Sa-2 MRS Δ", "setting": "[3]", "result": "−1.69 Log CFU/mL and −1.90 Log CFU/mL and −1.82 Log CFU/mL"}, {"measurement": "Sa-2 TSA Δ", "setting": "[3]", "result": "−2.39 Log CFU/mL and −2.07 Log CFU/mL and −0.79 Log CFU/mL and −2.32 Log CFU/mL"}, {"measurement": "Sa-2 MRS end", "setting": "[3]", "result": "5.16 Log CFU/mL and 4.47 Log CFU/mL and 4.88 Log CFU/mL"}, {"measurement": "Sa-2 TSA end", "setting": "[3]", "result": "4.74 Log CFU/mL and 4.56 Log CFU/mL and 5.73 Log CFU/mL and 4.53 Log CFU/mL"}]}, {"smiles": "O=C(CO)[C@@H](O)[C@H](O)[C@H](O)CO[C@H]1O[C@H](CO)[C@@H](O)[C@H](O)[C@H]1O", "note": "[Palatinose PST-N]", "values": [{"measurement": "Therapeutic Effect (ratio of L. crispatus/S. anginosus)", "setting": "[1]", "result": "8.71E+03 (2×) and 5.80E+03 (2×)"}, {"measurement": "Lc-3 MRS Δ", "setting": "[2]", "result": "3.42 Log CFU/mL and 2.48 Log CFU/mL"}, {"measurement": "Lc-3 MRS end", "setting": "[2]", "result": "8.46 Log CFU/mL and 8.22 Log CFU/mL"}, {"measurement": "Sa-2 MRS Δ", "setting": "[3]", "result": "−2.08 Log CFU/mL and −1.53 Log CFU/mL"}, {"measurement": "Sa-2 TSA Δ", "setting": "[3]", "result": "−2.11 Log CFU/mL and −1.03 Log CFU/mL"}, {"measurement": "Sa-2 MRS end", "setting": "[3]", "result": "4.29 Log CFU/mL and 5.16 Log CFU/mL"}, {"measurement": "Sa-2 TSA end", "setting": "[3]", "result": "4.52 Log CFU/mL and 5.49 Log CFU/mL"}]}, {"smiles": "O=C(CO)[C@@H](O)[C@H](O)[C@H](O)CO[C@H]1O[C@H](CO)[C@@H](O)[C@H](O)[C@H]1O", "note": "[Palatinose PST-PA]", "values": [{"measurement": "Therapeutic Effect (ratio of L. crispatus/S. anginosus)", "setting": "[1]", "result": "1.66E+02 (2×) and 1.50E+02 (2×)"}, {"measurement": "Lc-3 MRS Δ", "setting": "[2]", "result": "3.25 Log CFU/mL and 1.94 Log CFU/mL"}, {"measurement": "Lc-3 MRS end", "setting": "[2]", "result": "8.29 Log CFU/mL and 7.68 Log CFU/mL"}, {"measurement": "Sa-2 MRS Δ", "setting": "[3]", "result": "−1.63", "unit": "Log CFU/mL"}, {"measurement": "Sa-2 TSA Δ", "setting": "[3]", "result": "−0.56 Log CFU/mL and −1.23 Log CFU/mL"}, {"measurement": "Sa-2 MRS end", "setting": "[3]", "result": 5.06, "unit": "Log CFU/mL"}, {"measurement": "Sa-2 TSA end", "setting": "[3]", "result": "6.07 Log CFU/mL and 5.29 Log CFU/mL"}]}, {"smiles": "O=C(CO)[C@@H](O)[C@H](O)[C@H](O)CO[C@H]1O[C@H](CO)[C@@H](O)[C@H](O)[C@H]1O", "note": "[Palatinose PST-PF]", "values": [{"measurement": "Therapeutic Effect (ratio of L. crispatus/S. anginosus)", "setting": "[1]", "result": "1.29E+04 (2×) and 1.41E+04 (2×)"}, {"measurement": "Lc-3 MRS Δ", "setting": "[2]", "result": "3.02 Log CFU/mL and 2.16 Log CFU/mL"}, {"measurement": "Lc-3 MRS end", "setting": "[2]", "result": "8.06 Log CFU/mL and 7.90 Log CFU/mL"}, {"measurement": "Sa-2 MRS Δ", "setting": "[3]", "result": "−1.28", "unit": "Log CFU/mL"}, {"measurement": "Sa-2 TSA Δ", "setting": "[3]", "result": "−2.68 Log CFU/mL and −0.94 Log CFU/mL"}, {"measurement": "Sa-2 MRS end", "setting": "[3]", "result": 5.41, "unit": "Log CFU/mL"}, {"measurement": "Sa-2 TSA end", "setting": "[3]", "result": "3.95 Log CFU/mL and 5.58 Log CFU/mL"}]}]}
